Source: patent publication US10174007B2, “Substituted 3-azabicyclo[3.1.0]hexanes as ketohexokinase inhibitors” (Pfizer Inc., priority 2015, dated 2019)
Read-outs that look alike come from different tables or passages of the source.

Target: KHK-C (Homo sapiens (Human), UniProt P50053)
Assay: Assay A: coupled-enzyme KHK absorbance assay, 10 nM KHK-C
[1] = read-out: IC50 (nM) Assay A (Table 4), 10 nM KHK-C, 0.8 mM fructose, 0.2 mM ATP, avg of (#) runs
[2] = read-out: IC50 (nM) Assay A 10 nM KHK-C, 10 nM KHK-C, 0.8 mM fructose, 0.2 mM ATP, avg of (#) runs

KHK-C, sequence (P50053 whole entry): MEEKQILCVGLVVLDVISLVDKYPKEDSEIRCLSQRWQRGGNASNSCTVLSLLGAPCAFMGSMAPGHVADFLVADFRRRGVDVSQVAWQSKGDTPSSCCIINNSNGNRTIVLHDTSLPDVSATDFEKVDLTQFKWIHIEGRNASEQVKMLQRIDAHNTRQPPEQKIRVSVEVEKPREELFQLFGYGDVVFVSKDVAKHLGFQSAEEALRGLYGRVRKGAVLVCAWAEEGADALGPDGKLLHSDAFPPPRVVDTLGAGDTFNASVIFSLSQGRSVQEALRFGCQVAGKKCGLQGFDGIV
Description: A screening assay was developed for KHK involving a coupled enzyme system which used the product of the KHK reaction to drive an absorbance signal in kinetic mode. KHK takes fructose and ATP and converts it to F1P and ADP. ADP then serves as substrate to pyruvate kinase which converts PEP to pyruvate which is then reduced to lactate by lactate dehydrogenase with the concomitant oxidation of NADH to NAD+. The resulting depletion of NADH was monitored by measuring absorbance at 340 nm.
Recombinant human KHK-C and KHK-A were expressed in E. coli as a His-tagged fusion protein and purified using Ni-NTA chromatography.
Compounds were prepared in DMSO as 4 mM stocks, diluted using an 11-point half-log scheme on a Biomek FX (Beckman Coulter), and incubated at rt for 30 minutes with the reaction mixture containing 50 mM HEPES, pH 7.4, 140 mM KCl, 3.5 mM MgCl2, 0.8 mM fructose, 2 mM TCEP, 0.8 mM PEP, 0.7 mM NADH, 0.01% Triton X-100, 30 U/mL pyruvate kinase-lactate dehydrogenase, and 10 nM purified KHK-C. The compound concentration in each well ranged from 1 nM to 100 μM. The reaction was initiated with the addition of 0.2 mM ATP. The absorbance was measured for 30 minutes on a SpectraMax reader (Molecular Devices) after ATP was added. The concentrations provided are based on the final mixture volume of 40 μL (referred to as the final concentration).
Controls: N8-(cyclopropylmethyl)-N4-(2-(methylthio)phenyl)-2-(piperazin-1-yl)pyrimido[5,4-d]pyrimidine-4,8-diamine at 2 μM final concentration was used as high percent effect (HPE) control, and 2.5% DMSO which was present in all reaction wells was used as zero percent effect (ZPE) control. Reaction rates were obtained for 300-1800 seconds time window in units of 1000*AU/min (absorbance unit per minute), and average values for ZPE and HPE controls from 16 wells each were calculated, AveZPE and AveHPE, respectively.
Percent inhibition (% inhibition) was calculated for each well using this equation:
For each compound tested, the IC50 provided is the average based on at least two separate assays conducted on separate days.

| Compound | IC50 [1] [nM] | also measured |
| --- | --- | --- |
| C[C@H]1[C@H](O)CN1c1nc(N2C[C@@H]3[C@@H](CC(=O)O)[C@@H]3C2)cc(C(C)(F)F)n1 [Example 17, [(1R,5S,6R)-3-{6-(1,1-difluoroethyl)-2-[(2S,3R)-3-hydroxy-2-methylazetidin-1-yl]pyrimidin-4-yl}-3-azabicyclo[3.1.0]hex-6-yl]acetic acid] | 131 | – |
| C[C@H]1[C@H](O)CN1c1nc(C(F)F)c(Cl)c(N2C[C@@H]3[C@@H](CC(=O)O)[C@@H]3C2)n1 [Example 15, [(1R,5S,6R)-3-{5-chloro-6-(difluoromethyl)-2-[(2S,3R)-3-hydroxy-2-methylazetidin-1-yl]pyrimidin-4-yl}-3-azabicyclo[3.1.0]hex-6-yl]acetic acid] | 19.1 | – |
| C[C@H]1C[C@H](O)CN1c1nc(N2C[C@@H]3[C@@H](CC(=O)O)[C@@H]3C2)cc(C(F)(F)F)c1C#N [Example 23, [(1R,5S,6R)-3-{5-cyano-6-[(2S,4S)-4-hydroxy-2-methylpyrrolidin-1-yl]-4-(trifluoromethyl)pyridin-2-yl}-3-azabicyclo[3.1.0]hex-6-yl]acetic acid] | 11.6 | – |
| Cc1c(N2C[C@@H]3[C@@H](CC(=O)O)[C@@H]3C2)nc(N2C[C@@H](O)[C@@H]2C)nc1C(C)(F)F [Example 33, [(1R,5S,6R)-3-{6-(1,1-difluoroethyl)-2-[(2S,3R)-3-hydroxy-2-methylazetidin-1-yl]-5-methylpyrimidin-4-yl}-3-azabicyclo[3.1.0]hex-6-yl]acetic acid] | 114 | – |
| Cc1c(C(F)F)nc(N2C[C@@H](O)[C@@H]2C)nc1N1C[C@@H]2[C@@H](CC(=O)O)[C@@H]2C1 [Example 20, [(1R,5S,6R)-3-{6-(difluoromethyl)-2-[(2S,3R)-3-hydroxy-2-methylazetidin-1-yl]-5-methylpyrimidin-4-yl}-3-azabicyclo[3.1.0]hex-6-yl]acetic acid] | 33.4 | – |
| C[C@H]1CCCN1c1nc(N2C[C@@H]3[C@@H](CC(=O)O)[C@@H]3C2)cc(C(F)(F)F)n1 [Example 28, [(1R,5S,6R)-3-{2-[(2S)-2-methylpyrrolidin-1-yl]-6-(trifluoromethyl)pyrimidin-4-yl}-3-azabicyclo[3.1.0]hex-6-yl]acetic acid] | 120 | – |
| C[C@H]1[C@H](O)CN1c1cc(N2C[C@@H]3[C@@H](CC(=O)O)[C@@H]3C2)cc(C(F)(F)F)n1 [Example 27, [(1R,5S,6R)-3-{2-[(2S,3R)-3-hydroxy-2-methylazetidin-1-yl]-6-(trifluoromethyl)pyridin-4-yl}-3-azabicyclo[3.1.0]hex-6-yl]acetic acid] | 109 | – |
| CCc1c(N2C[C@@H]3[C@@H](CC(=O)O)[C@@H]3C2)nc(N2C[C@@H](O)[C@@H]2C)nc1C(F)(F)F [Example 8, [(1R,5S,6R)-3-{5-ethyl-2-[(2S,3R)-3-hydroxy-2-methylazetidin-1-yl]-6-(trifluoromethyl)pyrimidin-4-yl}-3-azabicyclo[3.1.0]hex-6-yl]acetic acid] | – | IC50 [2]: 53.8 nM |
| C[C@H]1CCN1c1nc(N2C[C@@H]3[C@@H](CC(=O)O)[C@@H]3C2)cc(C(F)F)c1C#N [Example 19, [(1R,5S,6R)-3-{5-cyano-4-(difluoromethyl)-6-[(2S)-2-methylazetidin-1-yl]pyridin-2-yl}-3-azabicyclo[3.1.0]hex-6-yl]acetic acid] | 7.2 | – |
| C[C@@H]1N(c2nc(N3C[C@@H]4[C@@H](CC(=O)O)[C@@H]4C3)c(Cl)c(C(F)F)c2C#N)C[C@@]1(C)O [Example 21, [(1R,5S,6R)-3-{3-chloro-5-cyano-4-(difluoromethyl)-6-[(2S,3R)-3-hydroxy-2,3-dimethylazetidin-1-yl]pyridin-2-yl}-3-azabicyclo[3.1.0]hex-6-yl]acetic acid] | 8.7 | – |
| COc1c(N2C[C@@H]3[C@@H](CC(=O)O)[C@@H]3C2)nc(N2C[C@@H](O)[C@@H]2C)nc1C(F)(F)F [Example 13, [(1R,5S,6R)-3-{2-[(2S,3R)-3-hydroxy-2-methylazetidin-1-yl]-5-methoxy-6-(trifluoromethyl)pyrimidin-4-yl}-3-azabicyclo[3.1.0]hex-6-yl]acetic acid] | – | IC50 [2]: 33.9 nM |
| C[C@H]1[C@H](O)CN1c1cc(N2C[C@@H]3[C@@H](CC(=O)O)[C@@H]3C2)nc(C(F)(F)F)n1 [Example 32, [(1R,5S,6R)-3-{6-[(2S,3R)-3-hydroxy-2-methylazetidin-1-yl]-2-(trifluoromethyl)pyrimidin-4-yl}-3-azabicyclo[3.1.0]hex-6-yl]acetic acid] | 1760 | – |
| C[C@@H]1N(c2nc(N3C[C@@H]4[C@H](C3)[C@H]4CS(C)(=O)=O)cc(C(F)(F)F)n2)C[C@@]1(C)O [Example 9, (2S,3R)-2,3-dimethyl-1-[4-{(1R,5S,6s)-6-[(methylsulfonyl)methyl]-3-azabicyclo[3.1.0]hex-3-yl}-6-(trifluoromethyl)pyrimidin-2-yl]azetidin-3-ol] | – | IC50: 14400 nM |
| C[C@H]1CCN1c1nc(N2C[C@@H]3[C@@H](CC(=O)NS(C)(=O)=O)[C@@H]3C2)cc(C(F)(F)F)n1 [Example 10, 2-[(1R,5S,6R)-3-{2-[(2S)-2-methylazetidin-1-yl]-6-(trifluoromethyl)pyrimidin-4-yl}-3-azabicyclo[3.1.0]hex-6-yl]-N-(methylsulfonyl)acetamide] | – | IC50 [2]: 682 nM |
| COc1c(C(F)F)nc(N2C[C@@H](O)[C@@H]2C)nc1N1C[C@@H]2[C@@H](CC(=O)O)[C@@H]2C1 [Example 29, [(1R,5S,6R)-3-{6-(difluoromethyl)-2-[(2S,3R)-3-hydroxy-2-methylazetidin-1-yl]-5-methoxypyrimidin-4-yl}-3-azabicyclo[3.1.0]hex-6-yl]acetic acid] | 265 | – |
| C[C@H]1[C@H](O)CN1c1nc(N2C[C@@H]3[C@@H](CC(=O)O)[C@@H]3C2)nc(C(F)(F)F)n1 [Example 30, [(1R,5S,6R)-3-{4-[(2S,3R)-3-hydroxy-2-methylazetidin-1-yl]-6-(trifluoromethyl)-1,3,5-triazin-2-yl}-3-azabicyclo[3.1.0]hex-6-yl]acetic acid] | 509 | – |
| Cc1c(N2C[C@@H]3[C@@H](CC(=O)O)[C@@H]3C2)nc(N2C[C@@](C)(O)[C@@H]2C)nc1C(F)(F)F [Example 26, [(1R,5S,6R)-3-{2-[(2S,3R)-3-hydroxy-2,3-dimethylazetidin-1-yl]-5-methyl-6-(trifluoromethyl)pyrimidin-4-yl}-3-azabicyclo[3.1.0]hex-6-yl]acetic acid] | 63.6 | – |
| C[C@@H]1N(c2nc(N3C[C@@H]4[C@@H](CC(=O)O)[C@@H]4C3)cc(C(F)(F)F)n2)C[C@@]1(C)O [Example 22, [(1R,5S,6R)-3-{2-[(2S,3R)-3-hydroxy-2,3-dimethylazetidin-1-yl]-6-(trifluoromethyl)pyrimidin-4-yl}-3-azabicyclo[3.1.0]hex-6-yl]acetic acid] | 703 | – |

Second part, led by results:

| IC50 [1] [nM] | Compound | also measured |
| --- | --- | --- |
| 82.5 | C[C@H]1[C@H](O)CN1c1nc(N2C[C@@H]3[C@@H](CCC(=O)O)[C@@H]3C2)cc(C(F)(F)F)c1C#N [Example 52, 3-[(1R,5S,6R)-3-{5-cyano-6-[(2S,3R)-3-hydroxy-2-methylazetidin-1-yl]-4-(trifluoromethyl)pyridin-2-yl}-3-azabicyclo[3.1.0]hex-6-yl]propanoic acid] | – |
| 21.5 | N#Cc1c(C(F)(F)F)cc(N2C[C@@H]3[C@@H](CC(=O)O)[C@@H]3C2)nc1N1CCC1 [Example 46, {(1R,5S,6s)-3-[6-(azetidin-1-yl)-5-cyano-4-(trifluoromethyl)pyridin-2-yl]-3-azabicyclo[3.1.0]hex-6-yl}acetic acid] | – |
| 21 | C[C@H]1[C@H](O)CN1c1nc(N2C[C@@H]3[C@@H](CC(=O)O)[C@@H]3C2)c(C#N)c(C(F)(F)F)n1 [Example 53, [(1R,5S,6R)-3-{5-cyano-2-[(2S,3R)-3-hydroxy-2-methylazetidin-1-yl]-6-(trifluoromethyl)pyrimidin-4-yl}-3-azabicyclo[3.1.0]hex-6-yl]acetic acid] | – |
| 619 | O=C(O)C[C@@H]1[C@H]2CN(c3cc(C(F)(F)F)nc(N4CCC4)n3)C[C@@H]12 [Example 47, {(1R,5S,6s)-3-[2-(azetidin-1-yl)-6-(trifluoromethyl)pyrimidin-4-yl]-3-azabicyclo[3.1.0]hex-6-yl}acetic acid] | – |
| 188 | C[C@H]1C[C@H](O)CN1c1nc(N2C[C@@H]3[C@@H](CC(=O)O)[C@@H]3C2)c(Cl)c(C(F)(F)F)n1 [Example 35, [(1R,5S,6R)-3-{5-chloro-2-[(2S,4S)-4-hydroxy-2-methylpyrrolidin-1-yl]-6-(trifluoromethyl)pyrimidin-4-yl}-3-azabicyclo[3.1.0]hex-6-yl]acetic acid] | – |
| 51.4 | Cc1c(N2C[C@@H]3[C@@H](CC(=O)O)[C@@H]3C2)nc(N2CC[C@@H]2C)nc1C(C)(F)F [Example 44, [(1R,5S,6R)-3-{6-(1,1-difluoroethyl)-5-methyl-2-[(2S)-2-methylazetidin-1-yl]pyrimidin-4-yl}-3-azabicyclo[3.1.0]hex-6-yl]acetic acid] | – |
| 13.7 | C[C@@H]1N(c2nc(N3C[C@@H]4[C@@H](CC(=O)O)[C@@H]4C3)cc(C(F)F)c2C#N)C[C@@]1(C)O [Example 55, [(1R,5S,6R)-3-{5-cyano-4-(difluoromethyl)-6-[(2S,3R)-3-hydroxy-2,3-dimethylazetidin-1-yl]pyridin-2-yl}-3-azabicyclo[3.1.0]hex-6-yl]acetic acid] | – |
| 19 | C[C@H]1[C@H](O)CN1c1nc(N2C[C@@H]3[C@@H](CC(=O)O)[C@@H]3C2)nc(C(F)(F)F)c1C#N [Example 54, [(1R,5S,6R)-3-{5-cyano-4-[(2S,3R)-3-hydroxy-2-methylazetidin-1-yl]-6-(trifluoromethyl)pyrimidin-2-yl}-3-azabicyclo[3.1.0]hex-6-yl]acetic acid] | – |
| 150 | N#Cc1c(C(F)F)cc(N2C[C@@H]3[C@@H](CC(=O)O)[C@@H]3C2)nc1NC1CCC1 [Example 51, {(1R,5S,6s)-3-[5-cyano-6-(cyclobutylamino)-4-(difluoromethyl)pyridin-2-yl]-3-azabicyclo[3.1.0]hex-6-yl}acetic acid] | – |
